Where a name gives a salt, the structure may show the parent alone.
Experiment: Weight loss rate at 60° C. for 2 weeks (sublimation)
Format: physicochemical
Settings: drying and sublimation
Method: Dimethyl fumarate has a property of being lost by sublimation depending on the storage temperature. Accordingly, in order to confirm the degree of weight loss according to the coating drying temperature, the degree of weight loss was repeatedly evaluated for 2 weeks at a temperature of 60° C. for dimethyl fumarate and a mixture thereof. At this time, the mixture of dimethyl fumarate was a mixture in which dimethyl fumarate and other pharmaceutically acceptable additives were mixed.

COC(=O)/C=C/C(=O)OC [dimethyl fumarate, Dimethyl fumarate]
Weight loss in words: continued to lose weight

Reference: US20240180841A1, “ENTERIC TABLET CONTAINING DIMETHYL FUMARATE” (CURACLE CO., LTD., priority 2019, published 2024)
